In patent US10717749B2, “Macrocyclic sulfondiimine compounds” (BAYER PHARMA AKTIENGESELLSCHAFT, priority 2015, dated 2020):
Converted amounts (≈) assume the structure as drawn.

Legend:
rat hepatocytes = assay: In vitro metabolic stability in rat hepatocytes; format: in vitro ADME; conditions: 1 μM
Method: (§1) Caco-2 cells (purchased from DSMZ Braunschweig, Germany) were seeded at a density of 4.5×10^4 cells per well on 24 well insert plates, 0.4 µm pore size, and grown for 15 days in DMEM medium supplemented with 10% fetal bovine serum, 1% GlutaMAX (100×, GIBCO), 100 U/mL penicillin, 100 μg/mL streptomycin (GIBCO) and 1% non essential amino acids (100×). Cells were maintained at 37° C. in a humified 5% CO2 atmosphere. Medium was changed every 2-3 day. Before running the permeation assay, the culture medium was replaced by a FCS-free hepes-carbonate transport buffer (pH 7.2). For assessment of monolayer integrity the transepithelial electrical resistance (TEER) was measured. Test compounds were predissolved in DMSO and added either to the apical or basolateral compartment in final concentration of 2 μM in transport buffer. Before and after 2 h incubation at 37° C. samples were taken from both compartments. Analysis of compound content was done after precipitation with methanol by LC/MS/MS analysis. Permeability (Papp) was calculated in the apical to basolateral (A→B) and basolateral to apical (B→A) directions. The apparent permeability was calculated using following equation: Papp=(Vr/Po)(1/S)(P2/t) Where Vr is the volume of medium in the receiver chamber, Po is the measured peak area or height of the test drug in the donor chamber at t=o, S the surface area of the monolayer, P2 is the measured peak area of the test drug in the acceptor chamber after 2 h of incubation, and t is the incubation time. The efflux ratio basolateral (B) to apical (A) was calculated by dividing the Papp B-A by the Papp A-B. In addition the compound recovery was calculated. 6. Investigation of In Vitro Metabolic Stability in Rat Hepatocytes
Hepatocytes from Han Wistar rats were isolated via a 2-step perfusion method. After perfusion, the liver was carefully removed from the rat: the liver capsule was opened and the hepatocytes were gently shaken out into a Petri dish with ice-cold Williams medium E (purchased from Sigma Aldrich Life Science, St Louis, Mo.). The resulting cell suspension was filtered through sterile gaze in 50 ml falcon tubes and centrifuged at 50×g for 3 min at room temperature. The cell pellet was resuspended in 30 ml WME and centrifuged through a Percoll® gradient for 2 times at 100×g. […] Cell viability was determined by trypan blue exclusion. […] Samples were frozen at −20° C. over night, after subsequently centrifuged for 15 minutes at 3000 rpm and the supernatant was analyzed with an Agilent 1200 HPLC-system with LCMS/MS detection.
The half-life of a test compound was determined from the concentration-time plot. From the half-life the intrinsic clearances were calculated.

Caco-2 permeation assay = format: in vitro ADME; conditions: human, Caco-2, pH 7.2, test compound 2 μM; for efflux ratio at 2 h, 2 μM: read-out: Efflux ratio (Papp B-A/Papp A-B); for Papp A→B at 2 h, 2 μM: read-out: Papp A-B (Mari); for Papp B→A at 2 h, 2 μM: read-out: Papp B-A (Mari)
Method: 5. Caco-2 Permeation Assay:
as §1

[1] = High throughput determination of aqueous drug solubility from DMSO solution (Method 4a); format: physicochemical; conditions: phosphate buffer, kinetic from dmso stock, pH 6.5, Method 4a
Excerpt: 4. Equilibrium Shake Flask Solubility Assay:
4a) High Throughput Determination of Aqueous Drug Solubility (100 Mmolar in DMSO)
The high throughput screening method to determine aqueous drug solubility is based on: Thomas Onofrey and Greg Kazan, Performance and correlation of a 96-well high throughput screening method to determine aqueous drug solubility, http://wwv.millipore.com/publications.nsf/a73664f9f981 af8c852569b9005b4eee/e565516fb76e7435852 56da30052db77/$FILE/AN1731EN00.pdf
The assay was run in a 96-well plate format. Each well was filled with an individual compound.
All pipetting steps were performed using a robot platform.
100 μl of a 10 mmolar solution of drug in DMSO were concentrated by vacuum centrifugation and resolved in 10 μl DMSO. 990 μl phosphate buffer pH 6.5 were added. The content of DMSO amounts to 1%. The multititer plate was put on a shaker and mixed for 24 hrs at room temperature. 150 μl of the suspension were transferred to a filtration plate. After filtration using a vacuum manifold the filtrate was diluted 1:400 and 1:8000. A second microtiter plate with 20 μl of a 10 mM solution of drug in DMSO served for calibration. Two concentrations (0.005 μM and 0.0025 μM) were prepared by dilution in DMSO/water 1:1 and used for calibration. Filtrate and calibration plates were quantified by HPLC-MS/MS.
The areas of sample- and calibration injections were determined by using mass spectromety software (AB SCIEX: Discovery Quant 2.1.3. and Analyst 1.6.1). The calculation of the solubility value (in mg/l) was executed by an inhouse developed Excel macro.

[2] = In vivo pharmacokinetics in rats; conditions: male, Wistar, rat, plasma, iv; i.v. bolus dosing to rats; read-out: t1/2: terminal half-life (converted)
Method: 7. In Vivo Pharmacokinetics in Rats
For in vivo pharmacokinetic experiments test compounds were administered to male Wistar rats intravenously at doses of 0.3 to 1 mg/kg formulated as solutions using either rat plasma or solubilizers such as PEG400 in well-tolerated amounts.
For pharmacokinetics after intravenous administration test compounds were given as i.v. bolus and blood samples were taken at 2 min, 8 min, 15 min, 30 min, 45 min, 1 h, 2 h, 4 h, 6 h, 8 h and 24 h after dosing. […] Blood was collected into Lithium-Heparin tubes (Monovetten®, Sarstedt) and centrifuged for 15 min at 3000 rpm. An aliquot of 100 μL from the supernatant (plasma) was taken and precipitated by addition of 400 μL ice cold acetonitrile and frozen at −20° C. over night. Samples were subsequently thawed and centrifuged at 3000 rpm, 4° C. for 20 minutes. Aliquots of the supernatants were taken for analytical testing using an Agilent 1200 HPLC-system with LCMS/MS detection. PK parameters were calculated by non-compartmental analysis using a PK calculation software. […]

CN=S(C)(=N)Cc1cc2cc(c1)OCCCCOc1cc(F)ccc1-c1nc(ncc1F)N2 (racemic) [Example 10, (rac)-9-[(N,S-dimethylsulfonodiimidoyl)methyl]-16,20-difluoro-2,3,4,5-tetrahydro-12H-13,17-(azeno)-11,7-(metheno)-1,6,12,14-benzodioxadiazacyclononadecine]
maximal calculated oral bioavailability (Fmax) based on stability data in rat hepatocytes (rat hepatocytes): 46%

CS(=N)(=N)Cc1cc2cc(c1)OCCCCOc1c(ccc(F)c1F)-c1nc(ncc1F)N2 [Example 6, 16,20,21-trifluoro-9-[(S-methylsulfonodiimidoyl)methyl]-2,3,4,5-tetrahydro-12H-13,17-(azeno)-11,7-(metheno)-1,6,12,14-benzodioxadiazacyclononadecine]
efflux ratio at 2 h, 2 μM (Caco-2 permeation assay): 4.8 | Papp A→B at 2 h, 2 μM (Caco-2 permeation assay): 4.64 ×10⁻⁶ cm/s | Papp B→A at 2 h, 2 μM (Caco-2 permeation assay): 22.3 ×10⁻⁶ cm/s | solubility thermodynamic at 24 h [1]: 14 µg/mL (≈ 29.3 µM)

CS(=N)(=N)Cc1cc2nc(c1)OCCCOc1cc(F)ccc1-c1cc(ncc1F)N2 [Example 1, 15,19-difluoro-8-[(S-methylsulfonodiimidoyl)methyl]-3,4-dihydro-2H,11H-10,6-(azeno)-12,16-(metheno)-1,5,11,13-benzodioxadiazacyclooctadecine]
half-life [2]: 3.4 h | maximal calculated oral bioavailability (Fmax) based on stability data in rat hepatocytes (rat hepatocytes): 76% | efflux ratio at 2 h, 2 μM (Caco-2 permeation assay): 1.4 | Papp A→B at 2 h, 2 μM (Caco-2 permeation assay): 6.24 ×10⁻⁶ cm/s | Papp B→A at 2 h, 2 μM (Caco-2 permeation assay): 8.92 ×10⁻⁶ cm/s

CS(=N)(=N)Cc1cc2cc(c1)OCCCCOc1cc(F)ccc1-c1nc(ncc1F)N2 [Example 5, 16,20-difluoro-9-[(S-methylsulfonodiimidoyl)methyl]-2,3,4,5-tetrahydro-12H-13,17-(azeno)-11,7-(metheno)-1,6,12,14-benzodioxadiazacyclononadecine]
half-life [2]: 6.9 h | maximal calculated oral bioavailability (Fmax) based on stability data in rat hepatocytes (rat hepatocytes): 93% | efflux ratio at 2 h, 2 μM (Caco-2 permeation assay): 5 | Papp A→B at 2 h, 2 μM (Caco-2 permeation assay): 4.82 ×10⁻⁶ cm/s | Papp B→A at 2 h, 2 μM (Caco-2 permeation assay): 24.1 ×10⁻⁶ cm/s | solubility thermodynamic at 24 h [1]: 78 µg/mL (≈ 170 µM)

CS(=N)(Cc1cc2cc(c1)OCCCCOc1cc(F)ccc1-c1nc(ncc1F)N2)=NC1CC1 (racemic) [Example 9, (rac)-9-[(N-cyclopropyl-S-methylsulfonodiimidoyl)methyl]-16,20-difluoro-2,3,4,5-tetrahydro-12H-13,17-(azeno)-11,7-(metheno)-1,6,12,14-benzodioxadiazacyclononadecine]
solubility thermodynamic at 24 h [1]: 70 µg/mL (≈ 140 µM)

CS(=N)(Cc1cc2nc(c1)OCCCOc1cc(F)ccc1-c1cc(ncc1F)N2)=NCCCO (racemic) [Example 2, (rac)-3-(2-{[15,19-difluoro-3,4-dihydro-2H,11H-10,6-(azeno)-12,16-(metheno)-1,5,11,13-benzodioxadiazacyclooctadecin-8-yl]methyl}-2-methyl-2λ^6-diazathia-1,2-dien-1-yl)propan-1-ol]
maximal calculated oral bioavailability (Fmax) based on stability data in rat hepatocytes (rat hepatocytes): 58% | efflux ratio at 2 h, 2 μM (Caco-2 permeation assay): 23.2 | Papp A→B at 2 h, 2 μM (Caco-2 permeation assay): 0.99 ×10⁻⁶ cm/s | Papp B→A at 2 h, 2 μM (Caco-2 permeation assay): 22.9 ×10⁻⁶ cm/s
